We go through 18 compounds from US20090203716A1, “Pyrimidine low molecular weight ligands for modulating hormone receptors” (The Government of the United States of America as …, priority 2006, published 2009).

Series [1] concerns the target T1, human LHCG receptor (Homo sapiens, UniProt P22888).
T1 construct: expressed in transfected cells
As to the kind of experiment: intracellular cAMP accumulation, agonism at LHCGR stably expressed in HEK EM 293 cells. The conditions noted are these: for % Max. Resp. @ LHCGR in μM: % of maximum response of LHCGR to LH (1000 ng/ml); for EC50: read-out: EC50 (LHCGR) in μM [95% C.I.], cAMP, HEK EM 293 cells, dose response 0-100 μM compound. In kind it is cell-based. As to the method:
(§1) With reference to Table 1, exemplary disclosed compounds were evaluated against human TSH receptor and human LHCG receptor that were stably expressed in HEK 293 EM cells as previously described by Libert et al. (Biochem. Biophys. Res. Commun. 1989, 165, 1250-1255); and by Schulz et al. (Mol. Endocrinol. 1999, 13, 181-190). Cell surface expression of TSH receptor and LHCG receptor were determined via FACS analysis (Kleinau, G.; Jäschke, H.; Neumann, S.; Lättig, S.; Paschke, R.; Krause, G. J. Biol. Chem. 2004, 279, 51590-51600).
Following aspiration of the medium after incubation with compounds, cells were lysed using lysis buffer 1 of the cAMP Biotrak Enzymeimmunoassay (EIA) System (Amersham Biosciences). The cAMP content of the cell lysate was determined using the manufacturer's protocol. […] The potency (EC50) was obtained from dose response curves (0-100 μM compound) by data analysis with GraphPad Prism 4 for Windows. […] The data are presented as mean±SEM of two independent experiments, each performed in duplicate.
(§2) Transiently transfected cells were cultured for 48 hours before the cAMP assay. HEK-EM 293 cells stably expressing TSHR, LHCGR or FSHR were seeded into 24-well plates with a density of 2.2×10^5 cells/well 24 hours before the cAMP assay. After removal of growth medium, cells were incubated for 1 hour in HBSS (Cellgro) with 10 mM HEPES (Cellgro) containing 1 mM 3-isobutyl-1-methylxanthine (IBMX) (Sigma) and the ligand of interest in a humidified 5% CO2 incubator at 37° C. The intracellular cAMP content was determined with the cAMP Biotrak Enzymeimmunoassay (EIA) System (GE Healthcare). Data were analyzed using GraphPad Prism 4 for Windows. Receptor expression was measured as described in Jaschke et al., J Biol Chem 281:9841-9844.
On the technique in general: cAMP levels reflect the balance of adenylyl cyclase and phosphodiesterase activity.

The target of series [2] is T2, human TSH receptor (Homo sapiens, UniProt P16473).
T2 construct: expressed in transfected cells
T2 sequence (P16473 21-764): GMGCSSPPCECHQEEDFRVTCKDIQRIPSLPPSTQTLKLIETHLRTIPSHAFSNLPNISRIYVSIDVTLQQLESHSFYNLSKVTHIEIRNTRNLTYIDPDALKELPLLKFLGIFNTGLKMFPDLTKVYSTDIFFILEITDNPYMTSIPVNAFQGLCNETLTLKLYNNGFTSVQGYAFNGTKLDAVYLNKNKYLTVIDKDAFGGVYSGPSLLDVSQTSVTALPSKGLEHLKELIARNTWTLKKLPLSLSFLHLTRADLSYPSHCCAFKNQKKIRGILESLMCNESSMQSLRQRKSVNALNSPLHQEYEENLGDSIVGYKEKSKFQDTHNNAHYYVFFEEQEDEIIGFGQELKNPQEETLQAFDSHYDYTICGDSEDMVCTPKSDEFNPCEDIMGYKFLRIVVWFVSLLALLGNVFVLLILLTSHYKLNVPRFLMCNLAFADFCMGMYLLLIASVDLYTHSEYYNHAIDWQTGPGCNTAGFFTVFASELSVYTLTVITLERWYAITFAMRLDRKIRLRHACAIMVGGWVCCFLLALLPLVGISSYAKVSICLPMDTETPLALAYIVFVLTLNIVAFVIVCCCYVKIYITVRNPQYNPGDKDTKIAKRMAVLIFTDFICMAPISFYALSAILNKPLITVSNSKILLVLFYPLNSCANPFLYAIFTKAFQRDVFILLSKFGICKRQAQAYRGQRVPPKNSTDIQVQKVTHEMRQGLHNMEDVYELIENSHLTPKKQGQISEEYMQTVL
As to the kind of experiment: intracellular cAMP accumulation, agonism at TSHR stably expressed in HEK EM 293 cells. In kind it is cell-based. The note with it: for % Max. Resp. @ TSHR in μM: % of maximum response of TSHR to TSH (100 mU/ml), * estimated maximum response at 100 μM compound; for EC50: cAMP, HEK EM 293 cells, dose response 0-100 μM compound, ** estimated EC50, no plateau. The procedure: as §1, with “51590-51600). Agonism of compounds 3-20 were determined via measurement of intracellular cyclic AMP accumulation. […] For example, […] certain compounds disclosed herein exerted no discernible effect on the FSH receptor.” for “51590-51600).”
Cells were cultured for 48 h in 24-well plates before incubation for 1 h in serum-free DMEM containing 1 mM 3-isobutyl-1-methylxanthine (IBMX) (SIGMA) and bovine TSH (1.8 μM) (SIGMA) or human LH (1000 ng/ml) (Dr. A. Parlow, NIDDK National Hormone and Pituitary Program) or compounds 3-19 (0-100 μM) in a humidified 5% CO2 incubator. Following aspiration of the medium after incubation with compounds, cells were lysed using lysis buffer 1 of the cAMP Biotrak Enzymeimmunoassay (EIA) System (Amersham Biosciences). The cAMP content of the cell lysate was determined using the manufacturer's protocol. The efficacy of receptor activation by small molecule modulators is expressed as % of maximum response of LHCG receptor or TSH receptor to LH or TSH, respectively. The potency (EC50) was obtained from dose response curves (0-100 μM compound) by data analysis with GraphPad Prism 4 for Windows. With reference to FIG. 1, intracellular cAMP production was determined in response to 100 μM of each compound and is expressed as % of maximum response of TSHR/LHCGR to TSH (100 mU/ml)/LH (1000 ng/ml). The data are presented as mean±SEM of two independent experiments, each performed in duplicate.
as §2

Series [3] addresses TSHR (Homo sapiens, UniProt P16473). The series can be described thus: inhibition of TSH-mediated cAMP response in HEK-EM 293 cells stably expressing TSHR. In kind it is cell-based. Also noted: expressed in transfected cells. As to the method: as §2
The TSH-mediated cAMP response of TSHR was inhibited by a maximum of 70.8±5.5% at 30 μM compound 52. […] Compound 52 has no activity at FSHR.
To exclude the possibility that compound 52 might be acting independently of TSHR by building aggregates with TSH, thereby inhibiting the TSH-induced response, tests were conducted for a possible aggregation between these two ligands. Compound 52 and TSH were preincubated for up to 15 minutes before addition to HEK-EM 293 cells stably expressing TSHR. […] There was no difference in the antagonistic effect whether TSH and compound 52 were preincubated together or not (data not shown) thereby excluding the possibility that its effect was caused by aggregation with TSH.

Series [4] in a line: solubility. Format: physicochemical. The conditions noted are these: compared to compound 52.

Entries after “also recorded” stand apart in the source; their conditions may differ.

For orientation: EC50 means the midpoint of the concentration-response curve.

T1 sequence (P22888 27-699): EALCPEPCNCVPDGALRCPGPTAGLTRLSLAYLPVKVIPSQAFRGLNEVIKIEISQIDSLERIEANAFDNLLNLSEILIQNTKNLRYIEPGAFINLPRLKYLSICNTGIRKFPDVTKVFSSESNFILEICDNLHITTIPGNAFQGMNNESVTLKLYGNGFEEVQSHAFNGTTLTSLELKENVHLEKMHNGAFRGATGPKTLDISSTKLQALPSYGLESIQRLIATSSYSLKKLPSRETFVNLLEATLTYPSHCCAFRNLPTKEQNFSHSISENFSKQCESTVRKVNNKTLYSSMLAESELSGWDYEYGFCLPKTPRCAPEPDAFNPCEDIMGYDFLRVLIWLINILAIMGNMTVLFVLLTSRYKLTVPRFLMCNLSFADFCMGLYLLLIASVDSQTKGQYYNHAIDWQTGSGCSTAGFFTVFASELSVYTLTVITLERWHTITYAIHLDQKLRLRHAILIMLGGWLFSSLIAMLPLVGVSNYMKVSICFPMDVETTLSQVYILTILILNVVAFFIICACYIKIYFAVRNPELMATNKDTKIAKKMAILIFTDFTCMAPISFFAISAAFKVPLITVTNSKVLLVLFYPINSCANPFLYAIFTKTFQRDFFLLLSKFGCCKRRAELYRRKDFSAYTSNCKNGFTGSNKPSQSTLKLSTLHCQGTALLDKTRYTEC
Chain of TSHR (P16473 21-764): as the sequence (P16473 21-764) above

`CCOC(=O)c1sc2nc(SC)nc(-c3cccc(OC)c3)c2c1N` [Compound 4, ethyl-5-amino-4-(3-methoxyphenyl)-2-(methylthio)thieno[2,3-d]pyrimidine-6-carboxylate]: in series [1], the “% Max. Resp. @ LHCGR in μM” value turned out to be 4.2 ± 2.2%. In series [2], the “% Max. Resp. @ TSHR in μM” value was 1.5 ± 0.2%.

As for `COc1cccc(-c2nc(SC)nc3sc(C(=O)OC(C)(C)C)c(N)c23)c1` [Compound 5, tert-butyl-5-amino-4-(3-methoxyphenyl)-2-(methylthio)thieno[2,3-d]pyrimidine-6-carboxylate], in series [1], the “% Max. Resp. @ LHCGR in μM” value was 23.8 ± 3.3% and the EC50 came out at 1.1 µM. Besides, in series [2], the “% Max. Resp. @ TSHR in μM” value is recorded as >30.3* % and the EC50 was 11900 nM.

Turning to `CCNC(=O)c1sc2nc(SC)nc(-c3cccc(OC)c3)c2c1N` [Compound 6, 5-amino-N-(ethyl)-4-(3-methoxyphenyl)-2-(methylthio)thieno[2,3-d]pyrimidine-6-carboxamide], the “% Max. Resp. @ LHCGR in μM” value in series [1] is given as 26.9 ± 4.8%. Moreover, in series [2], the “% Max. Resp. @ TSHR in μM” value is recorded as 2.3 ± 0.4%.

Regarding `COc1cccc(-c2nc(SC)nc3sc(C(=O)N(C)C(C)(C)C)c(N)c23)c1` [Compound 7, N-tert-butyl-5-amino-4-(3-methoxyphenyl)-N-methyl-2-(methylthio)thieno[2,3-d]pyrimidine-6-carboxamide], in series [1], the “% Max. Resp. @ LHCGR in μM” value is on record as 47.8 ± 2.8% and the EC50 was found to be 0.8 µM. Further, the “% Max. Resp. @ TSHR in μM” value in series [2] was 3.6 ± 1.9%.

`COc1cccc(-c2nc(SC)nc3sc(C(=O)NN)c(N)c23)c1` [Compound 8, 5-amino-4-(3-methoxyphenyl)-2-(methylthio)thieno[2,3-d]pyrimidine-6-carbohydrazide]: in series [1], the “% Max. Resp. @ LHCGR in μM” value turned out to be 8.5 ± 3.6%. Moreover, the “% Max. Resp. @ TSHR in μM” value in series [2] is 6.1 ± 0.8%.

On to `COc1cccc(-c2nc(SC)nc3sc(C(=O)NN(C)C)c(N)c23)c1` [Compound 9, 5-amino-4-(3-methoxyphenyl)-N′N′-dimethyl-2-(methylthio)thieno[2,3-d]pyrimidine-6-carbohydrazide], for which, in series [1], the “% Max. Resp. @ LHCGR in μM” value came out at 11.0 ± 1.5%. Besides, in series [2], the “% Max. Resp. @ TSHR in μM” value is 4.0 ± 0.1%.

In the case of `COc1cccc(-c2nc(SC)nc3sc(C(=O)NNC(C)(C)C)c(N)c23)c1` [Compound 10, N′-tert-butyl-5-amino-4-(3-methoxyphenyl)-2-(methylthio)thieno[2,3-d]pyrimidine-6-carbohydrazide], the “% Max. Resp. @ LHCGR in μM” value in series [1] is 6.0 ± 3.1%. In series [2], the “% Max. Resp. @ TSHR in μM” value is recorded as 6.4 ± 0.6%.

Consider `COc1cccc(-c2nc(SC)nc3sc(C(=O)NNC(=O)OC(C)(C)C)c(N)c23)c1` [Compound 11, N′-Boc-5-amino-4-(3-methoxyphenyl)-2-(methylthio)thieno[2,3-d]pyrimidine-6-carbohydrazide], for which the “% Max. Resp. @ LHCGR in μM” value in series [1] worked out at 2.4 ± 0.5%. Besides, the “% Max. Resp. @ TSHR in μM” value in series [2] is on record as 1.9 ± 0.4%.

On to `COc1cccc(-c2nc(SC)nc3sc(C(=O)NCCO)c(N)c23)c1` [Compound 12, 5-amino-4-(3-methoxyphenyl)-N-(2-hydroxyethyl)-2-(methylthio)thieno[2,3-d]pyrimidine-6-carboxamide], for which the “% Max. Resp. @ LHCGR in μM” value in series [1] turned out to be 20.5 ± 2.7%. Also, the “% Max. Resp. @ TSHR in μM” value in series [2] is reported as 2.9 ± 0.5%.

On to `COc1cccc(-c2nc(SC)nc3sc(C(=O)NCC#N)c(N)c23)c1` [Compound 13, 5-amino-N-(cyanomethyl)-4-(3-methoxyphenyl)-2-(methylthio)thieno[2,3-d]pyrimidine-6-carboxamide], for which the “% Max. Resp. @ LHCGR in μM” value in series [1] was 20.3 ± 2.1%. In series [2], the “% Max. Resp. @ TSHR in μM” value is reported as 3.6 ± 0.6%.

Consider `COc1cccc(-c2nc(SC)nc3sc(C(=O)NCc4ccccc4)c(N)c23)c1` [Compound 14, 5-amino-N-benzyl-4-(3-methoxyphenyl)-2-(methylthio)thieno[2,3-d]pyrimidine-6-carboxamide], for which the “% Max. Resp. @ LHCGR in μM” value in series [1] came out at 7.8 ± 2.7%. Further, the “% Max. Resp. @ TSHR in μM” value in series [2] is on record as 3.0 ± 1.2%.

As for `COc1cccc(-c2nc(SC)nc3sc(C(=O)NCCc4ccccc4)c(N)c23)c1` [Compound 15, 5-amino-4-(3-methoxyphenyl)-2-(methylthio)-N-phenethylthieno[2,3-d]pyrimidine-6-carboxamide], the “% Max. Resp. @ LHCGR in μM” value in series [1] stood at 25.6 ± 5.4%. The “% Max. Resp. @ TSHR in μM” value in series [2] is reported as 4.3 ± 0.4%.

As for `COc1cccc(-c2nc(SC)nc3sc(C(=O)NC(C)(C)C)c(N)c23)c1OC` [Compound 16, N-tert-butyl-5-amino-4-(2,3-dimethoxyphenyl)-2-(methylthio)thieno[2,3-d]pyrimidine-6-carboxamide], in series [1], the “% Max. Resp. @ LHCGR in μM” value was 50.1 ± 3.6% and the EC50 was determined as 0.8 µM. Also, the “% Max. Resp. @ TSHR in μM” value in series [2] was 3.0 ± 0.9%.

`COc1cccc(-c2nc(SC)nc3sc(C(=O)NC(C)(C)C)c(N)c23)c1F` [Compound 17, N-tert-butyl-5-amino-4-(2-fluoro-3-methoxyphenyl)-2-(methylthio)thieno[2,3-d]pyrimidine-6-carboxamide]: in series [1], the “% Max. Resp. @ LHCGR in μM” value is on record as 46.3 ± 6.6% and the EC50 amounted to 1.5 µM. Moreover, in series [2], the “% Max. Resp. @ TSHR in μM” value is listed as >24.0* % and the EC50 is 11500 nM.

Regarding `CSc1nc(-c2cccc(F)c2)c2c(N)c(C(=O)NC(C)(C)C)sc2n1` [Compound 18, N-tert-butyl-5-amino-4-(3-fluorophenyl)-2-(methylthio)thieno[2,3-d]pyrimidine-6-carboxamide], the EC50 in series [1] was 1.2 µM. For the same compound, the “% Max. Resp. @ TSHR in μM” value in series [2] is given as 8.1 ± 1.7%.

Regarding `CSc1nc(-c2cccc(O)c2)c2c(N)c(C(=O)NC(C)(C)C)sc2n1` [Compound 19, N-tert-butyl-5-amino-4-(3-hydroxyphenyl)-2-(methylthio)thieno[2,3-d]pyrimidine-6-carboxamide], in series [1], the “% Max. Resp. @ LHCGR in μM” value is given as 63.9 ± 14.2% and the EC50 stood at 1.9 µM. In addition, the “% Max. Resp. @ TSHR in μM” value in series [2] is on record as 11.2 ± 1.0%.

`CSc1nc(-c2ccc(/C=C/CS(C)(=O)=O)cc2)c2c(N)c(C(=O)NC(C)(C)C)sc2n1` [Compound 52/1]: in series [3], the “antagonistic activity at TSHR in cAMP assay” value is “no antagonistic activity”.

With `C[S+]([O-])c1nc(-c2ccc(/C=C/CS(C)(=O)=O)cc2)c2c(N)c(C(=O)NC(C)(C)C)sc2n1` (stereo not drawn) [Compound 52/2], the “antagonistic activity at TSHR in cAMP assay” value in series [3] was “antagonist activity similar to compound 52; also recorded: antagonistic activity”. For the same compound, the solubility result in series [4] was “improved solubility”.
